This passage reports Activity and IC50 results from ChEMBL document CHEMBL2401684, “Synthesis and evaluation of a conditionally-silent agonist for the α7 nicotinic acetylcholine receptor” (Bioorg Med Chem Lett, 2013).

By IC50 is commonly meant the concentration that inhibits the measured activity by half.

The target in assay [1] is T1, Neuronal acetylcholine receptor subunit alpha-7 (Homo sapiens, UniProt P36544). The experiment in a line: Agonist activity at human alpha7 nAChR expressed in Xenopus laevis oocytes assessed as induction of acetylcholine-stimulated peak inward current by two-electrode voltage clamp assay. In kind it is cell-based. Particulars: Oocyte. (In general: Two-electrode voltage clamp is typically applied to oocytes expressing channels or transporters.)
T1 sequence (P36544 whole entry): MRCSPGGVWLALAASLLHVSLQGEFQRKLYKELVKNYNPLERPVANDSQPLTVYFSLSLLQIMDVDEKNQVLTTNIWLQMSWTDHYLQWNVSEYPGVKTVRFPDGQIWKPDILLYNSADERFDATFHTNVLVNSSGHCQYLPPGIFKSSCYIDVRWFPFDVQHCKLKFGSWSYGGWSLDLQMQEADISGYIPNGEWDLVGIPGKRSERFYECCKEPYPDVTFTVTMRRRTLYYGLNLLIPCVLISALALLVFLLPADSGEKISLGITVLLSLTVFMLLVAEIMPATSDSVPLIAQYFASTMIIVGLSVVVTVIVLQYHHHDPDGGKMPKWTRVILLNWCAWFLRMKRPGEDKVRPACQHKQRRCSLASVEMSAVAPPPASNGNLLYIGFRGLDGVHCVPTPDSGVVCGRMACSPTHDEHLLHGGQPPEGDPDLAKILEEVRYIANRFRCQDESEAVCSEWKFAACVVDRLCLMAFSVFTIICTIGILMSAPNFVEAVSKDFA

Assay [2] concerns the target Neuronal acetylcholine receptor subunit alpha-7 (Rattus norvegicus) (UniProt Q05941). The experiment in a line: Agonist activity at rat alpha7 nAChR expressed in Xenopus laevis oocytes assessed as induction of acetylcholine-stimulated peak inward current by two-electrode voltage clamp assay. The note with it: Oocyte. It counts as cell-based.
Assay [3] concerns the target T1, Neuronal acetylcholine receptor subunit alpha-7. The experiment in a line: Silent agonist activity at human alpha7 nAChR expressed in Xenopus laevis oocytes assessed as induction of TQS-stimulated peak current. It counts as cell-based. Particulars: Oocyte.
Assay [4] shares this target. The experiment in a line: Antagonist activity at human alpha7 nAChR expressed in Xenopus laevis oocytes assessed as reduction of acetylcholine-induced peak current at 100 uM. In kind it is cell-based. The note with it: Oocyte.
For assay [5] the target is unchanged. The experiment in a line: Silent agonist activity at human alpha7 nAChR expressed in Xenopus laevis oocytes assessed as induction of PNU-120596-stimulated peak current. It counts as cell-based, Oocyte.
Assay [6] shares this target. The experiment in a line: Agonist activity at human alpha7 nAChR expressed in Xenopus laevis oocytes assessed as induction of peak current at 100 uM. The note with it: Oocyte. It counts as cell-based.
The target is the same in assay [7]. The experiment in a line: Silent agonist activity at human alpha7 nAChR expressed in Xenopus laevis oocytes assessed as induction of PNU-120596-stimulated peak current in presence of methyllycaconitine. The note with it: Oocyte. It counts as cell-based.
For assay [8] the target is unchanged. The experiment in a line: Silent agonist activity at human alpha7 nAChR expressed in Xenopus laevis oocytes assessed as induction of PNU-120596-stimulated peak current at 100 uM. It counts as cell-based. The note with it: Oocyte.

Each structure is given as a SMILES string. The source made the active and inactive calls. The calls are words filed in the database; no cut-off is given here. A value given as a limit tells only on which side of the number the result lay.

Neuronal acetylcholine receptor subunit alpha-7 (Rattus norvegicus), sequence (Q05941 whole entry): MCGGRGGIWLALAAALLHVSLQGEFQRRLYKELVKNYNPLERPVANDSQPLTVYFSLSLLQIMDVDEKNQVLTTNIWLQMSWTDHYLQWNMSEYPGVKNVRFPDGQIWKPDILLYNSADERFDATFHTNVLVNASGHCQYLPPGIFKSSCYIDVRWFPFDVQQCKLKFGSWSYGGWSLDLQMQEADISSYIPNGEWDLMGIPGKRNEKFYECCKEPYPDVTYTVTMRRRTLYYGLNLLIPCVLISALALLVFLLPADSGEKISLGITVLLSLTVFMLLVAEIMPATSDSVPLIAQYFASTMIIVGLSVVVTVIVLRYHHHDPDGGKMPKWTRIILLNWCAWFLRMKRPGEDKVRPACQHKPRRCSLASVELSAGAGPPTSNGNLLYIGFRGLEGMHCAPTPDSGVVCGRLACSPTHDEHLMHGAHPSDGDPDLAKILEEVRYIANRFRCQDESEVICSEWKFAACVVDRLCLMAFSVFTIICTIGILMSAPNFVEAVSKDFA

As to `O=C(c1ccc(-c2cccc(C(F)(F)F)c2)o1)N1CCN2CCC1CC2`, the Activity in assay [1] and in assay [2] was less than 2% each time.
Take `c1ccc(-c2cncc(C3=NCCCC3)c2)cc1`: the outcome in assay [3], in assay [4] and in assay [8] was Active. In addition, the IC50 in assay [5] was 41 µM. For the same molecule, the result in assay [6] and in assay [7] was inactive.
